Assay: xn = mol fraction of the nth substance listed
Details: 100 kPa, Liquid; for mass density: Vibrating tube method; for viscosity: Falling or rolling sphere viscometry

OCC1CC1 [cyclopropylmethanol] + c1ccc2c(c1)CCCC2
Details	mass density [kg/m3]	viscosity [mPa·s]
318.15 K, x2 = 0	892.38	–
318.15 K, x2 = 0.0993	900.96	–
318.15 K, x2 = 0.1972	908.2	–
318.15 K, x2 = 0.3008	914.89	–
318.15 K, x2 = 0.3978	920.7	–
318.15 K, x2 = 0.4986	926.13	–
318.15 K, x2 = 0.6031	931.29	–
318.15 K, x2 = 0.7031	935.88	–
318.15 K, x2 = 0.7981	939.99	–
318.15 K, x2 = 0.901	944.36	–
323.15 K, x2 = 0	888.17	1.825
323.15 K, x2 = 0.0993	896.69	1.644
323.15 K, x2 = 0.1972	903.9	1.517
323.15 K, x2 = 0.3008	910.59	1.423
323.15 K, x2 = 0.3978	916.41	1.355
323.15 K, x2 = 0.4986	921.85	1.305
323.15 K, x2 = 0.6031	927.06	1.271
323.15 K, x2 = 0.7031	931.69	1.254
323.15 K, x2 = 0.7981	935.85	1.235
323.15 K, x2 = 0.901	940.3	1.263
328.15 K, x2 = 0	883.86	1.629
328.15 K, x2 = 0.0993	892.34	1.476
328.15 K, x2 = 0.1972	899.54	1.369
328.15 K, x2 = 0.3008	906.23	1.291
328.15 K, x2 = 0.3978	912.06	1.22
328.15 K, x2 = 0.4986	917.54	1.195
328.15 K, x2 = 0.6031	922.78	1.169
328.15 K, x2 = 0.7031	927.49	1.156
328.15 K, x2 = 0.7981	931.68	1.157
328.15 K, x2 = 0.901	936.23	1.174
333.15 K, x2 = 0	879.52	1.46
333.15 K, x2 = 0.0993	887.95	1.331
333.15 K, x2 = 0.1972	895.13	1.241
333.15 K, x2 = 0.3008	901.83	1.176
333.15 K, x2 = 0.3978	907.69	1.131
333.15 K, x2 = 0.4986	913.2	1.1
333.15 K, x2 = 0.6031	918.5	1.08
333.15 K, x2 = 0.7031	923.23	1.071
333.15 K, x2 = 0.7981	927.51	1.076
333.15 K, x2 = 0.901	932.14	1.094
338.15 K, x2 = 0	875.1	1.316
338.15 K, x2 = 0.0993	883.49	1.205
338.15 K, x2 = 0.1972	890.66	1.13
338.15 K, x2 = 0.3008	897.37	1.078
338.15 K, x2 = 0.3978	903.28	1.041
338.15 K, x2 = 0.4986	908.82	1.015
338.15 K, x2 = 0.6031	914.15	1.004
338.15 K, x2 = 0.7031	918.94	0.996
338.15 K, x2 = 0.7981	923.3	1.003
338.15 K, x2 = 0.901	928.03	1.024
343.15 K, x2 = 0	870.62	1.19
343.15 K, x2 = 0.0993	878.98	1.095
343.15 K, x2 = 0.1972	886.15	1.033
343.15 K, x2 = 0.3008	892.87	0.99
343.15 K, x2 = 0.3978	898.8	0.961
343.15 K, x2 = 0.4986	904.39	0.941
343.15 K, x2 = 0.6031	909.78	0.933
343.15 K, x2 = 0.7031	914.63	0.931
343.15 K, x2 = 0.7981	919.07	0.941
343.15 K, x2 = 0.901	923.91	0.961

— the NIST ThermoML archive (doi:10.1021/acs.jced.8b00662)
